In assay [1] the target is honeybee Para channel (Apis mellifera, UniProt C9D7C5). The assay can be described thus: Two-microelectrode voltage-clamp of Xenopus oocytes co-expressing Para channel and TipE; pyrethroid-induced tail currents. It counts as cell-based. The following applies: for tail current induction: after conditioning pulses (-80mV to -20mV, 100 Hz), Para + TipE; for Hill coefficient: Hill fit of dose-response curve of tail current. As for the experimental part: Xenopus oocytes were handled in accordance with the principles and guidelines of the Université Laval animal protection committee and the Canadian Council on Animal Care. […] They were then treated with 2 mg/ml collagenase (Collagenase type 1A from Clostridium histolyticum, Sigma) in OR2 solution for 1 h. They were then incubated for at least 1 h at 18°C in OR3 solution. Stage IV and V oocytes were microinjected with mRNA corresponding to the Para channel and the selected regulatory subunit (1 µg/µl for Para and 0.3 µg/µl for regulatory subunits, 50 nl/oocyte). The injected oocytes were incubated at 18°C in OR3 solution for at least 12 h before taking recordings.
Macroscopic currents from mRNA-injected oocytes were recorded in Ringer's solution using the two-microelectrode voltage-clamp technique. The membrane potential for the two-microelectrode voltage-clamp technique was controlled using a Warner oocyte clamp (Warner Instrument Corp.). The currents were filtered at 5 kHz (-3 dB; four-pole Bessel filter). The headstage of the Warner amplifier was attached to a plastic pool containing a 3M NaCl solution through a silver chloride wire connected to the bath solution using an agar bridge. The bridge contained 3% agar (w/v), 500 mM NMDG, and 10 mM HEPES (pH 7.4) and was threaded with a thin platinum/iridium wire to lower high-frequency impedance.
The pH was adjusted to 7.6 at 22°C using 1 M NaOH.
The dose-response curves obtained from these calculations were fitted to a Hill curve using the following equation: M = (MMax)/(1 + ((EC50/dose))^h), [formula] where h is the Hill coefficient, Mmax is the maximal fraction of channels affected, EC50 is the half-maximal effective concentration, and dose is the concentration at which the observation was made.
Current decay and tail current kinetics were fitted to the following equation when a single exponential was used: [formula] and to the following equation when double exponential was used: [formula] where y0 is the initial value, A is the weight of the exponential, and τ is the time constant of the exponential.

Assay [2] concerns the target sodium current of honeybee antennal olfactory receptor neurons. The following applies: Kadala A et al. 2011; cited from earlier work.
Assay [3] has as its target drosophila Para channel (Drosophila melanogaster, UniProt P35500). The following applies: read-out: EC50 for the drosophila channel; Vais H et al. 2003, ATX-II used to inhibit inactivation; cited from earlier work.

Structures are written as SMILES. Values joined by “and” are separate entries in the source; they are usually repeats but may differ in a detail not shown here. Identical values can stand only once. “Also recorded” adds a separate entry of the source.

Usually Hill coefficient stands for the slope factor of the fitted curve.

Chain of honeybee Para channel (C9D7C5 1-2044): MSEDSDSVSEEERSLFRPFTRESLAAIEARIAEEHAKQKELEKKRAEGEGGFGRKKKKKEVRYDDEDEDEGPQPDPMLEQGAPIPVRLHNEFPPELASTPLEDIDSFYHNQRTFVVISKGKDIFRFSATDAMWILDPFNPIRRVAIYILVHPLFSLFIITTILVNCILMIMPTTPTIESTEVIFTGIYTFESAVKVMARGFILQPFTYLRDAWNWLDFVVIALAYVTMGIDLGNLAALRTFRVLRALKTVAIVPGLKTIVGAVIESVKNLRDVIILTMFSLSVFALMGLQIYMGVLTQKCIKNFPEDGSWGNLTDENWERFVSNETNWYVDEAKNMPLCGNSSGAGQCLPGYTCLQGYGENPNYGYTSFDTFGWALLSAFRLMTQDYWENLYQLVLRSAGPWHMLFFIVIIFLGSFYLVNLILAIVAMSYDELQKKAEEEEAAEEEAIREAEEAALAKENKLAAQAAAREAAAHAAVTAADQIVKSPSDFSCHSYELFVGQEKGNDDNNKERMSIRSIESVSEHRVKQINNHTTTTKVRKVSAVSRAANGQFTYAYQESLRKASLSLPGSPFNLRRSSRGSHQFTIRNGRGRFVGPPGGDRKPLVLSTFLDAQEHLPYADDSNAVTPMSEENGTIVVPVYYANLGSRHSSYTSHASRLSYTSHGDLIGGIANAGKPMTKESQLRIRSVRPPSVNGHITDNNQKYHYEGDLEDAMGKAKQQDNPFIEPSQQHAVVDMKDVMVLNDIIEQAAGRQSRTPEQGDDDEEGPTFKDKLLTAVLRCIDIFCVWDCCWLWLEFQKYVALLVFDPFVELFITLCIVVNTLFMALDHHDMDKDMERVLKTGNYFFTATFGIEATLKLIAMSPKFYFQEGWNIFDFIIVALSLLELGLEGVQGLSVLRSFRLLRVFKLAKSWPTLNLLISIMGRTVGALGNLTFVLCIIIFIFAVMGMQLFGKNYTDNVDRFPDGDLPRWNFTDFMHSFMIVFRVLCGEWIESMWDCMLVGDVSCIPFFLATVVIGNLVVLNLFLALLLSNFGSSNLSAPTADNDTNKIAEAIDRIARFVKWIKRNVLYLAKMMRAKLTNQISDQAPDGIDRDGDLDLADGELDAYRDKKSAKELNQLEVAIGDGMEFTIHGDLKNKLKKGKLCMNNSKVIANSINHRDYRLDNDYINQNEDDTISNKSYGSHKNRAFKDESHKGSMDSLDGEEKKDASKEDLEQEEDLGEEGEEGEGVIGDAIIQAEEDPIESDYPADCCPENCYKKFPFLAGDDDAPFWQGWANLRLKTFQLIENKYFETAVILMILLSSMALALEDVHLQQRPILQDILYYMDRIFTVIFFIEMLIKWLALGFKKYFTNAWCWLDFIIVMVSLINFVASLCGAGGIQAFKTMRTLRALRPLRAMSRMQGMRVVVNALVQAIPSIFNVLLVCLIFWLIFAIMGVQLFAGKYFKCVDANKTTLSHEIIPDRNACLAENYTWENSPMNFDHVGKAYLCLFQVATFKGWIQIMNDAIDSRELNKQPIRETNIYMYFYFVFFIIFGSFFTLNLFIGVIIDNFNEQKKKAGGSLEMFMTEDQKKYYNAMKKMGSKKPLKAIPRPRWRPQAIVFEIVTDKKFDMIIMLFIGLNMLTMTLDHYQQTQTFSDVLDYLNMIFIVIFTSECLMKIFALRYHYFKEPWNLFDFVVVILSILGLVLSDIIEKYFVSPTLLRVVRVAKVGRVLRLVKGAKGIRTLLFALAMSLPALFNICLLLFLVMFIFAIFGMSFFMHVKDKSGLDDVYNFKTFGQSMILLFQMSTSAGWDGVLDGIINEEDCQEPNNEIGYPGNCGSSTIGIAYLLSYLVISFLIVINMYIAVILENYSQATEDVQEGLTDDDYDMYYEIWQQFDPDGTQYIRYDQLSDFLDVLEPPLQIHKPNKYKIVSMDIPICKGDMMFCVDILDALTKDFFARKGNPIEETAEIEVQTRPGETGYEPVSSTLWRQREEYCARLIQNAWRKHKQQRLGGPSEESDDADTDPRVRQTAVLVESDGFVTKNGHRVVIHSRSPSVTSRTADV
Chain of drosophila Para channel (P35500 whole entry): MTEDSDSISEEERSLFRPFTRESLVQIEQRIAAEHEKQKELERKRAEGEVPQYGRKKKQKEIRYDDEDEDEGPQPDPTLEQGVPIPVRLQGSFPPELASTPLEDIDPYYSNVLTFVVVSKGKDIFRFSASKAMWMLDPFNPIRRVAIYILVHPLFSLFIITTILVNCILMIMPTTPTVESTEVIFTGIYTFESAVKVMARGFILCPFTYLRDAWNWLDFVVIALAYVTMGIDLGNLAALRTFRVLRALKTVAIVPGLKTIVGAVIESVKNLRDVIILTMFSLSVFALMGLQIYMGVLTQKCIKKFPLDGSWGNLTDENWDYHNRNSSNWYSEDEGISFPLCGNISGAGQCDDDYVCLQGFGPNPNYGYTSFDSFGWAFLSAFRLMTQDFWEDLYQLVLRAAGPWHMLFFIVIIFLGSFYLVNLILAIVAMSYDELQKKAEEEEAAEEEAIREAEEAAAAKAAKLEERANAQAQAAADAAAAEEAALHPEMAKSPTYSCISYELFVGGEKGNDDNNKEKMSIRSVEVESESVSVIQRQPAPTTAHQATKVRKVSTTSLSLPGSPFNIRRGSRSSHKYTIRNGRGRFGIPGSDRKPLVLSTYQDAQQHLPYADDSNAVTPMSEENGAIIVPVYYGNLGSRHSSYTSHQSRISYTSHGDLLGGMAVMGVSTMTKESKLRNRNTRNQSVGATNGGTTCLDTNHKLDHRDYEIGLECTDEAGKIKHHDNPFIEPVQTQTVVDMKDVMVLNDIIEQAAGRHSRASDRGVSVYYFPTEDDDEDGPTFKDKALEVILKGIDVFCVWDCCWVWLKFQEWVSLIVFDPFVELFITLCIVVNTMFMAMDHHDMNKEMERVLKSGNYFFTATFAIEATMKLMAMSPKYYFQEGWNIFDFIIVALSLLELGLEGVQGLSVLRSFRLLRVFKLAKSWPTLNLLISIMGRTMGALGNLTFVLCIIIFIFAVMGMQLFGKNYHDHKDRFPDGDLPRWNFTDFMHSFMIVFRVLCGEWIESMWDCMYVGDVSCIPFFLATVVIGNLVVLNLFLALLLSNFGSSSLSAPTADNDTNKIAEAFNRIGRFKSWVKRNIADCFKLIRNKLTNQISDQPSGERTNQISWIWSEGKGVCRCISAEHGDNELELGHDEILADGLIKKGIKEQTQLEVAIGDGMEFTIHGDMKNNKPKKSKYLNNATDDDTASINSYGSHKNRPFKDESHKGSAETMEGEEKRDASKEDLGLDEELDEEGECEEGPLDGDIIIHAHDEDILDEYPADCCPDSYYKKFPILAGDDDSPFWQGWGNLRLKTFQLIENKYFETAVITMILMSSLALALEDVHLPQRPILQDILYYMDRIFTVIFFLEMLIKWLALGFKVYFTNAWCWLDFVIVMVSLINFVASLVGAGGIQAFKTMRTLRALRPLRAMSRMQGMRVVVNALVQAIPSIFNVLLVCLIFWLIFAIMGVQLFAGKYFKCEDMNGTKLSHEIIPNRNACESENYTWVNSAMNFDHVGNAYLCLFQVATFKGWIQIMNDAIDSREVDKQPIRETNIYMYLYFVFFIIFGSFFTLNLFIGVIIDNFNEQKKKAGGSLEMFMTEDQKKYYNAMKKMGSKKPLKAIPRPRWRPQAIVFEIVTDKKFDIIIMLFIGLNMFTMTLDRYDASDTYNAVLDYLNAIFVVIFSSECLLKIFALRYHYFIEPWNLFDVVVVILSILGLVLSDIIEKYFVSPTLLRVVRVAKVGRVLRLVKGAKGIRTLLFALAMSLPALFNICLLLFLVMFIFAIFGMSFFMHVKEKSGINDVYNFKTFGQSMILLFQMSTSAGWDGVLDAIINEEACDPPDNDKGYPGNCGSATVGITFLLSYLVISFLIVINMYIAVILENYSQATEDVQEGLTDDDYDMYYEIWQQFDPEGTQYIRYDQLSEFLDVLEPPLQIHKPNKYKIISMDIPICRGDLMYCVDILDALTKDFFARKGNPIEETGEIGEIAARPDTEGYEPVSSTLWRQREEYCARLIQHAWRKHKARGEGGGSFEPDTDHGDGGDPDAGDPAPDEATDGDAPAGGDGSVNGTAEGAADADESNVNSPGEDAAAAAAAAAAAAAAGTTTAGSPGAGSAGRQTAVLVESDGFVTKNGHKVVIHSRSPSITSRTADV

On to `CC1(C)C(C=C(Cl)Cl)C1C(=O)OCc1cccc(Oc2ccccc2)c1` (centres unmarked) [permethrin], for which the “shifts in activation, inactivation, or recovery from inactivation” value in assay [1] (10 µM in extracellular medium, Para co-expressed with TipE) was “no significant effect; also recorded: did not induce statistically significant shifts”. For the same molecule, in assay [1] (10 µM), the tail current induction result is on record as “induced tail currents”. Also, in assay [1] (10 µM, tail current amplitude), the “number of conditioning pulses at which the maximal effect is reached” value was found to be 200 pulses. Further, the Hill coefficient in assay [1] is 0.8263 and 0.83. For the same molecule, the “time constant of deactivation of tail currents (single exponential)” value in assay [1] (single exponential fit) was determined as 0.93 s. Also, the “inversion (reversal potential) of tail current” value in assay [1] (tail current after 200 conditioning pulses, linear voltage-dependence) is “approximately +10 mV”. Moreover, the figures for the EC50 in assay [2] and in assay [3] were 3.5 µM and 12 nM, respectively.

In the case of `CC(C)C(C(=O)OC(C#N)c1cccc(Oc2ccccc2)c1)c1ccc(Cl)cc1` (centres unmarked) [fenvalerate], in assay [1] (10 µM), the tail current induction result is “induced a tail current”. Further, the Hill coefficient in assay [1] is 1.1817 and 1.18. In addition, in assay [1] (double exponential fit), the “relative weight of the slow component of tail current deactivation” value is reported as 85.4%; the “time constant of tail current deactivation, first exponential” value was 9.9 s; the “time constant of tail current deactivation, second exponential” value is 31.8 s. Besides, the EC50 in assay [1] (fraction of channels bound vs dose, Hill fit, 1700 conditioning pulses, Para + TipE in oocytes, read-out: half maximal effective concentration (EC50)) was 289 nM and ~290 nM.

The record behind these values is patent EP3040345A1, “Sodium channel subunits of pollinator insects and uses thereof” (Centre National de la Recherche Scientifique (CNRS), priority 2014, dated 2016).
